Measured values reported in US10206902B2, “Mono- or di-substituted indoles as dengue viral replication inhibitors” (priority 2014, dated 2019).

How the values were obtained:
[1] = tested on: DENV-2 16681 strain; experiment: DENV-2 antiviral assay (eGFP-labelled virus in Vero cells); assay type: cell-based, Dengue virus; details: DENV-2 16681 eGFP, MOI 0.5, 3 days
Experimental: The antiviral activity of all the compounds of the invention was tested against DENV-2 16681 strain which was labeled with enhanced green fluorescent protein (eGPF). The culture medium consists of minimal essential medium supplemented with 2% of heat-inactivated fetal calf serum, 0.04% gentamycin (50 mg/mL) and 2 mM of L-glutamine. Vero cells, obtained from ECACC, were suspended in culture medium and 25 μL was added to 384-well plates (2500 cells/well), which already contain the antiviral compounds. Typically, these plates contain a 4-fold serial dilution of 9 dilution steps of the test compound at 200 times the final concentration in 100% DMSO (200 nL). In addition, each compound concentration is tested in quadruplicate (final concentration range: 25 μM-0.00038 μM). Finally, each plate contains wells which are assigned as virus controls (containing cells and virus in the absence of compound), cell controls (containing cells in the absence of virus and compound) and medium controls (containing medium in the absence of cells, virus and compounds). To the wells assigned as medium control, 25 μL of culture medium was added instead of Vero cells. Once the cells were added to the plates, the plates were incubated for 30 minutes at room temperature to allow the cells to distribute evenly within the wells. Next, the plates were incubated in a fully humidified incubator (37° C., 5% CO2) until the next day. Then, DENV-2 strain 16681, labeled with eGFP, was added at a multiplicity of infection (MOI) of 0.5. Therefore, 15 μL of virus suspension was added to all the wells containing test compound and to the wells assigned as virus control. In parallel, 15 μL of culture medium was added to the medium and cell controls. Next, the plates were incubated for 3 days in a fully humidified incubator (37° C., 5% CO2). At the day of the read out, the eGFP fluorescence was measured using an automated fluorescence microscope at 488 nm (blue laser). Using an in-house LIMS system, inhibition dose response curves for each compound were calculated and the half maximal effective concentration (EC50) was determined. Therefore, the percent inhibition (I) for every test concentration is calculated using the following formula: I=100*(ST−SCC)/(SVC−SCC); ST, SCC and SVC are the amount of eGFP signal in the test compound, cell control and virus control wells, respectively. The EC50 represents the concentration of a compound at which the virus replication is inhibited with 50%, as measured by a 50% reduction of the eGFP fluorescent intensity compared to the virus control. The EC50 is calculated using linear interpolation (Table 1).

[2] = in vitro; assay type: cell-based; details: African green monkey, CC50
Experimental: (§1) In parallel, the toxicity of the compounds was assessed on the same plates. Once the read-out for the eGFP signal was done, 10 μL of resazurin, a cell viability stain, was added to all wells of the 384-well plates. The resazurin assay is based on the reduction of the blue resazurin by NADH, produced by the cells, into the highly fluorescent product, resorufin. The formation of pink fluorescent resorufin is directly related to the number of viable cells in the well. The plates were incubated for an additional 5 hours in a fully humidified incubator (37° C., 5% CO2). Next, the plates were measured on an Infinite reader (Tecan) using an excitation wavelength of 530 nm. The half maximal cytotoxic concentration (CO50) was also determined, defined as the concentration required to reduce the resazurin conversion by 50% compared to that of the cell control wells (Table 1). Finally, the selectivity index (SI) was determined for the compounds, which was calculated as followed: SI=CC50/EC50.

[3] = tested on: Vero cells; experiment: in vitro; assay type: cell-based; details: African green monkey
Experimental: as §1

[4] = Dengue virus, DENV2, Vero, 72 h

## COc1cc(NC(C(=O)c2c[nH]c3c(C)c(F)ccc23)c2ccc(F)cc2OC)cc(OCCO)c1 (racemic) [Compound 2, 2-(4-fluoro-2-methoxyphenyl)-1-(6-fluoro-7-methyl-1H-indol-3-yl)-2-((3-(2-hydroxyethoxy)-5-methoxyphenyl)amino)ethanone]
[1]; [4]
  EC50: 5.4 nM
[2]
  CC50: 7000 nM

## COc1cc(NC(C(=O)c2c[nH]c3cc(F)ccc23)c2ccc(F)cc2OC)cc(OCCO)c1 (racemic) [Compound 1, 1-(6-fluoro-1H-indol-3-yl)-2-(4-fluoro-2-methoxyphenyl)-2-((3-(2-hydroxyethoxy)-5-methoxyphenyl)amino)ethanone]
[1]; [4]
  EC50: 8 nM
[2]
  CC50: 11000 nM

## COc1cc(NC(C(=O)c2c[nH]c3c(Cl)c(OC)ccc23)c2ccc(F)cc2OC)cc(OCCO)c1 (racemic) [Compound 8, 1-(7-chloro-6-methoxy-1H-indol-3-yl)-2-(4-fluoro-2-methoxyphenyl)-2-((3-(2-hydroxyethoxy)-5-methoxyphenyl)amino)ethanone]
[1]; [4]
  EC50: 3.9 nM
[2]
  CC50: 6800 nM

## COc1cc(NC(C(=O)c2c[nH]c3c(Cl)c(OC)ccc23)c2ccc(F)cc2OC)cc(OCCO)c1 (single isomer, unassigned) [Compound 8B, 1-(7-chloro-6-methoxy-1H-indol-3-yl)-2-(4-fluoro-2-methoxyphenyl)-2-((3-(2-hydroxyethoxy)-5-methoxyphenyl)amino)ethanone]
[1]
  EC50: 150 nM
[2]
  CC50: 9100 nM

## COc1cc(NC(C(=O)c2c[nH]c3cc(F)c(F)cc23)c2ccc(F)cc2OC)cc(OCCO)c1 (single isomer, unassigned) [Compound 10A, 1-(5,6-difluoro-1H-indol-3-yl)-2-(4-fluoro-2-methoxy-phenyl)-2-((3-(2-hydroxyethoxy)-5-methoxyphenyl)amino)ethanone]
[1]
  EC50: 580 nM
[2]
  CC50: 11000 nM

## COc1cc(NC(C(=O)c2c[nH]c3cc(OC)c(F)cc23)c2ccc(F)cc2OC)cc(OCCO)c1 (single isomer, unassigned) [Compound 7B, 2-(4-fluoro-2-methoxyphenyl)-1-(5-fluoro-6-methoxy-1H-indol-3-yl)-2-((3-(2-hydroxyethoxy)-5-methoxyphenyl)amino)ethanone]
[1]
  EC50: 540 nM
[3]
  CC50: 14000 nM

## COc1cc(NC(C(=O)c2c[nH]c3cc(F)c(F)cc23)c2ccc(F)cc2OC)cc(OCCO)c1 (racemic) [Compound 10, 1-(5,6-difluoro-1H-indol-3-yl)-2-(4-fluoro-2-methoxy-phenyl)-2-((3-(2-hydroxyethoxy)-5-methoxyphenyl)amino)ethanone]
[1]; [4]
  EC50: 6.8 nM
[2]
  CC50: 9300 nM

## COc1cc(NC(C(=O)c2c[nH]c3c(C)cc(F)cc23)c2ccc(F)cc2OC)cc(OCCO)c1 (single isomer, unassigned) [Compound 9A, 2-(4-fluoro-2-methoxyphenyl)-1-(5-fluoro-7-methyl-1H-indol-3-yl)-2-((3-(2-hydroxyethoxy)-5-methoxyphenyl)amino)ethanone]
[1]
  EC50: 630 nM
[2]
  CC50: 8800 nM

## COc1cc(NC(C(=O)c2c[nH]c3c(F)c(F)ccc23)c2ccc(F)cc2OC)cc(OCCO)c1 (single isomer, unassigned) [Compound 5A, 1-(6,7-difluoro-1H-indol-3-yl)-2-(4-fluoro-2-methoxyphenyl)-2-((3-(2-hydroxyethoxy)-5-methoxyphenyl)amino)ethanone]
[1]
  EC50: 440 nM
[2]
  CC50: 7400 nM

## COc1cc(NC(C(=O)c2c[nH]c3cc(OC)c(F)cc23)c2ccc(F)cc2OC)cc(OCCO)c1 (racemic) [Compound 7, 2-(4-fluoro-2-methoxyphenyl)-1-(5-fluoro-6-methoxy-1H-indol-3-yl)-2-((3-(2-hydroxyethoxy)-5-methoxyphenyl)amino)ethanone]
[1]; [4]
  EC50: 14 nM
[2]
  CC50: > 9700 nM

## COc1cc(NC(C(=O)c2c[nH]c3cc(Cl)ccc23)c2ccc(F)cc2OC)cc(OCCO)c1 (single isomer, unassigned) [Compound 4B, 1-(6-chloro-1H-indol-3-yl)-2-(4-fluoro-2-methoxyphenyl)-2-((3-(2-hydroxyethoxy)-5-methoxyphenyl)amino)ethanone]
[1]
  EC50: 380 nM
[2]
  CC50: 7700 nM

## COc1cc(NC(C(=O)c2c[nH]c3c(C)c(F)ccc23)c2ccc(F)cc2OC)cc(OCCO)c1 (single isomer, unassigned) [Compound 2A, 2-(4-fluoro-2-methoxyphenyl)-1-(6-fluoro-7-methyl-1H-indol-3-yl)-2-((3-(2-hydroxyethoxy)-5-methoxyphenyl)amino)ethanone]
[1]
  EC50: 660 nM
[2]
  CC50: 5400 nM

## COc1cc(NC(C(=O)c2c[nH]c3c(C)c(OC)ccc23)c2ccc(F)cc2OC)cc(OCCO)c1 (single isomer, unassigned) [Compound 11B, 2-(4-fluoro-2-methoxyphenyl)-2-((3-(2-hydroxyethoxy)-5-methoxyphenyl)amino)-1-(6-methoxy-7-methyl-1H-indol-3-yl)ethanone]
[1]
  EC50: 410 nM
[2]
  CC50: 12000 nM

## COc1cc(NC(C(=O)c2c[nH]c3c(C)c(Cl)ccc23)c2ccc(F)cc2OC)cc(OCCO)c1 (single isomer, unassigned) [Compound 3B, 1-(6-chloro-7-methyl-1H-indol-3-yl)-2-(4-fluoro-2-methoxyphenyl)-2-((3-(2-hydroxyethoxy)-5-methoxyphenyl)amino)ethanone]
[1]
  EC50: 180 nM
[2]
  CC50: 5800 nM

## COc1cc(NC(C(=O)c2c[nH]c3c(C)c(OC)ccc23)c2ccc(F)cc2OC)cc(OCCO)c1 (racemic) [Compound 11, 2-(4-fluoro-2-methoxyphenyl)-2-((3-(2-hydroxyethoxy)-5-methoxyphenyl)amino)-1-(6-methoxy-7-methyl-1H-indol-3-yl)ethanone]
[1]; [4]
  EC50: 2.4 nM
[2]
  CC50: 10000 nM

## COc1cc(NC(C(=O)c2c[nH]c3cc(F)ccc23)c2ccc(F)cc2OC)cc(OCCO)c1 (single isomer, unassigned) [Compound 1B, 1-(6-fluoro-1H-indol-3-yl)-2-(4-fluoro-2-methoxyphenyl)-2-((3-(2-hydroxyethoxy)-5-methoxyphenyl)amino)ethanone]
[1]
  EC50: 660 nM
[2]
  CC50: 12000 nM

## COc1cc(NC(C(=O)c2c[nH]c3c(F)c(F)ccc23)c2ccc(F)cc2OC)cc(OCCO)c1 (racemic) [Compound 5, 1-(6,7-difluoro-1H-indol-3-yl)-2-(4-fluoro-2-methoxyphenyl)-2-((3-(2-hydroxyethoxy)-5-methoxyphenyl)amino)ethanone]
[1]; [4]
  EC50: 8.9 nM
[2]
  CC50: 5200 nM

## COc1cc(NC(C(=O)c2c[nH]c3c(C)c(Cl)ccc23)c2ccc(F)cc2OC)cc(OCCO)c1 (racemic) [Compound 3, 1-(6-chloro-7-methyl-1H-indol-3-yl)-2-(4-fluoro-2-methoxyphenyl)-2-((3-(2-hydroxyethoxy)-5-methoxyphenyl)amino)ethanone]
[1]; [4]
  EC50: 2.1 nM
[2]
  CC50: 6300 nM

## COc1cc(NC(C(=O)c2c[nH]c3c(F)cc(C)cc23)c2ccc(F)cc2OC)cc(OCCO)c1 (single isomer, unassigned) [Compound 12A, 2-(4-fluoro-2-methoxyphenyl)-1-(7-fluoro-5-methyl-1H-indol-3-yl)-2-((3-(2-hydroxyethoxy)-5-methoxyphenyl)amino)ethanone]
[1]
  EC50: 930 nM
[2]
  CC50: 9200 nM
